Reference: the METLIN SMRT retention time set (Domingo-Almenara et al. 2019)

Test: gradient 5% acetonitrile 3 min, to 50% in 2 min, to 85% in 15 min, held 3 min, 100 µL/min
Details: column: Zorbax Extend-C18 2.1 x 50 mm; eluents: water / acetonitrile, 0.1% formic acid
Procedure, shortened: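 Data were gathered over 3 months by HPLC coupled to a quadrupole time-of-flight mass spectrometer, operated in positive and negative ionization mode. Mixtures of ~100 pure standards ran on a Zorbax Extend-C18 column (2.1 × 50 mm, 1.8 μm) at 100 μL/min, with water and acetonitrile each containing 0.1% formic acid and dead and dwell volumes of 40 μL and 900 μL. Retention time was read from adduct peaks picked by computer and checked manually.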

| Structure (SMILES) | RP-LC retention time |
| --- | --- |
| CCOc1ccccc1NC(=O)N1CCN(C(=O)N2C[C@H]3C[C@@H](C2)[C@H]2CCCC(=O)N2C3)CC1 | 687 s |
| COc1ccc(-c2noc(C3CCCN3C(=O)Nc3ccccc3Br)n2)cc1 (stereo unspecified) | 1070 s |
| O=C(NCc1ccsc1)C(=O)Nc1cccnc1 | 566 s |
| CC(=O)c1ccc(N2CCN(C(=O)CN3C(=S)NC(C)(C)CC3C)CC2)cc1 (stereo unspecified) | 716 s |
| CCSc1cccc(C(=O)N2CC(=O)Nc3ccccc32)c1 | 756 s |
| CCOC(=O)c1c(S(=O)(=O)N2CCC(C(=O)Nc3ccc(F)cc3C)CC2)c(C)n(C)c1C | 897 s |
| Cc1sc2ncn3c(=O)n(CC(=O)N4CCc5ccccc5C4)nc3c2c1C | 894 s |
| Cc1c(CCC(=O)N[C@H](C)C(=O)O)c(=O)oc2c(C)c(O)ccc12 | 618 s |
| COc1ccc(-n2nc3c(c2N)CSC3)cc1 | 629 s |
| Cc1ccc(NC(=O)C(C)C2CCN(C(=O)Nc3ccc(F)cc3)CC2)cc1C (stereo unspecified) | 928 s |
| Cc1ccccc1Nc1c(-c2cc(Br)ccc2F)nc2ccc(Cl)cn12 | 1100 s |
| Cc1nc(Nc2ncc3c(n2)CC(c2ccc(F)cc2)CC3=O)nc2ccccc12 (stereo unspecified) | 756 s |
| Cc1nn(-c2ccccc2)c2ccn(CC(=O)N3CCN(c4cccc(Cl)c4)CC3)c(=O)c12 | 927 s |
| O=C(Nc1ccc(N2CCN(c3ccccc3)C2=O)nc1)C1CCC1 | 844 s |
| CC(C)c1ccc(N2C(=O)C3N=NN(Cc4nc(-c5ccc(Br)cc5)no4)C3C2=O)cc1 (stereo unspecified) | 1220 s |
| Cc1oc(-c2ccccc2)nc1Cn1nnc(C(=O)Nc2cc(F)ccc2F)c1C | 1220 s |
| CCOC(=O)N1CCC(NC(=O)C(=O)NCCC2=CCCCC2)CC1 | 842 s |
| Cc1noc(C)c1C(=O)N1CCCC1Cc1noc(-c2cnccn2)n1 (stereo unspecified) | 661 s |
| CC1(C(=O)NCc2ccc3c(c2)OCO3)CCN(C(=O)Nc2ccccc2C(F)(F)F)CC1 | 812 s |

| Structure (SMILES) | RP-LC retention time |
| --- | --- |
| CC(C)c1ccc(NC(=O)Cn2cnc3nc(N4CCC(C(=O)NC5CC5)CC4)sc3c2=O)cc1 | 748 s |
| CCOCCCNC(=O)C1Cn2cccc2C(=O)N1 (stereo unspecified) | 592 s |
| COc1ccc(N2CCN(C(=O)c3sc4cccc(F)c4c3OC)CC2)cc1 | 998 s |
| O=C(Nc1cnc(N2CCC(N3CCCCC3)CC2)c(C(=O)O)c1)c1ccc(Br)cc1 | 637 s |
| CC(=O)N1CCC(CC(=O)N(C)CC2(C)CCOCC2)CC1 | 594 s |
| COC1C(=O)N(c2cccc(F)c2)C12CCNCC2 (stereo unspecified) | 604 s |
| Cc1ccc2[nH]cc(CCN3CC(C(=O)Nc4ccc(F)cc4F)CC3=O)c2c1 (stereo unspecified) | 835 s |
| CCOC(=O)c1[nH]c(C)c(CCC(=O)N2CCC(C(=O)NC(C)CC)CC2)c1C (stereo unspecified) | 723 s |
| CC(C)n1cnc(S(=O)(=O)N2CCCC(C(=O)Nc3ccc(Br)cc3F)C2)c1 (stereo unspecified) | 893 s |
| O=C(NC(c1nnc(-c2ccccc2)o1)c1ccccc1Cl)c1ccco1 (stereo unspecified) | 911 s |
| C=CCc1ccccc1OCC(O)CNC (stereo unspecified) | 566 s |
| CCN1C(=O)NC(c2ccccc2C(F)(F)F)C2=C1CN(CCC(=O)NC1CC1)C2=O (stereo unspecified) | 605 s |
| O=C(CCc1nc(-c2ccc(N3CCCC3)cc2)no1)Nc1ccc2c(c1)OCCO2 | 1010 s |
| O=C(NCCc1ccco1)C1CCCN(c2ccc(=O)n(-c3ccc(F)cc3)n2)C1 (stereo unspecified) | 773 s |
| Cc1nc(C2(C)CCN(S(=O)(=O)c3ccc(F)c(C)c3)CC2)no1 | 927 s |
| CC1CCC(NC(=O)C2CCN(S(=O)(=O)c3ccc4c(c3)sc(=O)n4C)CC2)CC1 (stereo unspecified) | 896 s |
| O=C(COc1ccc(F)cc1)N1CCCCC1CCN1CCCCC1 (stereo unspecified) | 648 s |
| Cc1ccc(NS(=O)(=O)c2cc(-c3[nH]ncc3C(=O)N3CCCC3)oc2C)c(Cl)c1 | 741 s |
| CC(C)CC(=O)Nc1ccc(N2CCN(CC(=O)N(C)C)CC2)cc1C(=O)O | 595 s |

| Structure (SMILES) | RP-LC retention time |
| --- | --- |
| COc1ccc2cccc(C(=N)c3ccc(C)c4c3CCC4)c2c1 | 747 s |
| COCCC1CCN(C(=O)COc2ccc(OC)cc2)CC1 | 768 s |
| O=C(Nc1nnc(SCc2nnc(-c3ccccc3)o2)s1)C1CCCCC1 | 934 s |
| Cc1[nH]c(C(=O)N2CCN(c3cccc(Cl)c3)CC2)c(C)c1S(=O)(=O)N1CCC(C)CC1 | 1090 s |
| COc1cc(CNC(=O)C23CCC=C2N(C2CCCC2)C(=O)CC3)cc(OC)c1 (stereo unspecified) | 752 s |
| O=C(Nc1ccc2c(c1)CCC2)Nc1cccn2ncnc12 | 891 s |
| Nc1ccc(CC(CC(=O)O)C(=O)O)cc1 (stereo unspecified) | 850 s |
| CSc1ccc(CN2CC(c3nc(C)no3)C2)cc1 | 530 s |
| COc1c(C)cnc(Cn2cnc3c(Cl)nc(N)nc32)c1C | 638 s |
| CCNc1cc(N2CCCC(CCC(=O)NC(C)C)C2)ncn1 (stereo unspecified) | 601 s |
| Cc1ccc(CN2CC(=O)N3CCc4c([nH]c5ccccc45)C3(C)C2=O)cc1 (stereo unspecified) | 1020 s |
| Cc1ccc2c(c1)C(=O)NC1(CCN(C(=O)NCc3ccccc3)CC1)N2C | 731 s |
| CC(C)c1ccc(-n2c3c(cc(C(=O)N4CCCCC4)c2=O)C(=O)CCC3)cc1 | 884 s |
| O=C(NCc1ccccc1F)C1CCN(c2cnc(N3CCCC3)nc2)CC1 | 654 s |
| Cc1ccc(C)c(Cn2nc3c(S(=O)(=O)N4CCCC4)cccn3c2=O)c1 | 914 s |
| N#Cc1cccc(-c2cn3c(n2)N(C(=O)c2cccs2)CCC3)c1 | 684 s |
| CCCn1nc2ccc(S(=O)(=O)N3CCOCC3)cn2c1=O | 696 s |
| CN(CCc1ccccn1)C(=O)C1CCN(c2cnn(C)c(=O)c2)CC1 | 553 s |
| O=C(NCc1ccc(F)cc1F)C1CCN(c2cncnc2N2CCOCC2)CC1 | 618 s |

Second part, the molecule after the results:

| RP-LC retention time | Structure (SMILES) |
| --- | --- |
| 730 s | CCOc1ccc2nc(N3CCCC(C(=O)NCCc4ccc(S(N)(=O)=O)cc4)C3)sc2c1 (stereo unspecified) |
| 698 s | COc1ccc(NC(=O)C2=C(C)NC(=O)NC2c2ccccc2Br)c(OC)c1 (stereo unspecified) |
| 834 s | Cc1cc(C)c(S(=O)(=O)N2CC(F)(F)C[C@H]2COc2cccnc2)c(C)c1 |
| 770 s | CCc1nnc2ccc(-c3noc(COc4ccc(Cl)cc4)n3)cn12 |
| 654 s | Cc1ccc2nc(-c3ccc(C)c(NC(=O)C(C)C)c3)[nH]c2c1 |
| 603 s | O=C(NC1CCCN(c2cc(-c3ccncc3)[nH]n2)C1)c1ccc2c(c1)OCO2 (stereo unspecified) |
| 691 s | O=C(Cn1nc2c(N3CCCCCC3)nccn2c1=O)NCc1ccc(F)cc1 |
| 1180 s | COc1ccccc1-c1nc(Cn2nnc(-c3nc(-c4ccccc4C)no3)c2C)c(C)o1 |
| 975 s | COc1ccc(-c2cc3c(=O)n(Cc4nc(-c5ccccc5OC)oc4C)ccn3n2)cc1 |
| 618 s | COc1cccc(CC(=O)NCC(=O)Nc2nc3ccccc3[nH]2)c1 |
| 961 s | CCOC(=O)CC(=O)CSc1nc2sc(C)cc2c(=O)n1C |
| 950 s | CCN(CC)S(=O)(=O)c1cccc(-c2nnc(-c3ccc(OC)c(OC)c3)o2)c1 |
| 806 s | CCCN(C)c1nccn2c(=O)n(CC(=O)Nc3ccc(F)cc3)nc12 |
| 885 s | COc1ccc(-c2cc3n(n2)CCCN(C(=O)Nc2ccccc2F)C3)cc1OC |
| 978 s | CCCNC(=O)N1CCN(c2nc3ccccc3n(Cc3ccc(C)cc3)c2=O)CC1 |
| 957 s | COC(=O)c1ccccc1NC(=O)CSc1nnc2c3cc(-c4ccc(F)cc4)nn3ccn12 |
| 1050 s | CCc1cc(-c2csc(S(=O)(=O)NCCc3ccc(Cl)cc3)c2)on1 |

| RP-LC retention time | Structure (SMILES) |
| --- | --- |
| 574 s | CCOCC(=O)N1CCCC1CCc1ncc(C)n1C(C)C (stereo unspecified) |
| 685 s | CC(C)N1CCN(Cc2ccc(C(=O)NCc3ccccc3)cc2)C(=O)C1=O |
| 1220 s | CCc1nc2cc(-c3noc(Cc4ccccc4Br)n3)ccc2o1 |
| 630 s | CCn1c(CCc2ccccc2NS(=O)(=O)c2c(C)n[nH]c2C)nc2ccccc21 |
| 870 s | COc1ccc2[nH]c(C)c(CCNS(=O)(=O)c3cc(OC)c(C)cc3OC)c2c1 |
| 589 s | CC(C)c1nc2cccnc2n1CCN1CCN(C(=O)Nc2ccc(F)cc2F)CC1 |
| 764 s | COCc1cc(=O)n(Cc2cccc(OC)c2)c(N2CCCC2)n1 |
| 681 s | Cc1ccc(Oc2cccc(C(=O)NCc3ccc(F)cc3)c2)nn1 |
| 717 s | COc1cc2c(cc1NC(=O)c1cccs1)n(C)c(=O)n2C |
| 718 s | Cc1ccc2nc(C(=O)NCc3ccc(Cl)cc3)cn2c1 |
| 646 s | Cc1ccc(-c2nc(-c3ccc4c(c3)ncn4CCN3CCCCC3)no2)s1 |
| 646 s | COC(=O)c1ccc(C(=O)Nc2ccncc2NC(=O)c2ccc(C(=O)OC)cc2)cc1 |
| 603 s | O=C(NCc1ccc(N2CCCCCC2)nc1)c1cncc(Br)c1 |
| 1160 s | Cc1ccc(-c2nc(-c3cccc(-c4ccnn4C)c3)no2)s1 |
| 584 s | CCOc1ccc(CNc2nc3ccncc3n(C(C)C)c2=O)cc1OC |
| 906 s | COc1ccc(C(=O)Nc2nc(-c3ccc4c(c3)N(C)C(=O)CO4)c(C)s2)cc1OC |
| 679 s | COCCNC(=O)C1c2ccccc2C(=O)N(C)C1c1cccs1 (stereo unspecified) |
